Data on 1 compound can be found in ChEMBL document CHEMBL4152373 (Bioorg Med Chem, 2018).

The test system of one series is Rattus norvegicus. The series is described as follows: Unbound clearance in Sprague-Dawley rat at 1 mg/kg, iv administered as single dose by LC-MS/MS analysis. The format is ADME, organism-based. The following applies: in vivo.
Series [1] relates to Mus musculus. The series is described as follows: Dose normalized unbound AUC in C57Bl/6J mouse at 50 mg/kg, po administered via gavage as single dose by LC-MS/MS analysis. Conditions: in vivo. The format is ADME, organism-based.
The test system of series [2] is Mus musculus. The series is described as follows: Antidiabetic activity in C57Bl/6J mouse assessed as inhibition of blood glucose AUC (0 to 120 mins) at 50 mg/kg, po treated prior to glucose challenge by OGTT relative to control. The format is functional.
In series [3] the target is Free fatty acid receptor 1 (Homo sapiens) (UniProt O14842). The series is described as follows: Antagonist activity at FFA1R (unknown origin) at 10 uM by aequorin based assay relative to control. The format is functional.
Free fatty acid receptor 1 (Homo sapiens), sequence (O14842 whole entry): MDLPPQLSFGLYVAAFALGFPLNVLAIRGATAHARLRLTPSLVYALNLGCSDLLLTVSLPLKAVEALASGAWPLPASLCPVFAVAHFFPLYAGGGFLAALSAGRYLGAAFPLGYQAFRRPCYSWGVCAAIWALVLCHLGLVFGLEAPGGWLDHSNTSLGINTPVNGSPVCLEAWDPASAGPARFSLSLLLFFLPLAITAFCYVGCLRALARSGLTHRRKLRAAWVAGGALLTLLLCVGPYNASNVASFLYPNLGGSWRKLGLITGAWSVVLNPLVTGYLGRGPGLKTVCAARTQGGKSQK
In series [4] the target is T1, Glucagon-like peptide 2 receptor (Homo sapiens) (UniProt O95838).
T1 sequence (whole entry): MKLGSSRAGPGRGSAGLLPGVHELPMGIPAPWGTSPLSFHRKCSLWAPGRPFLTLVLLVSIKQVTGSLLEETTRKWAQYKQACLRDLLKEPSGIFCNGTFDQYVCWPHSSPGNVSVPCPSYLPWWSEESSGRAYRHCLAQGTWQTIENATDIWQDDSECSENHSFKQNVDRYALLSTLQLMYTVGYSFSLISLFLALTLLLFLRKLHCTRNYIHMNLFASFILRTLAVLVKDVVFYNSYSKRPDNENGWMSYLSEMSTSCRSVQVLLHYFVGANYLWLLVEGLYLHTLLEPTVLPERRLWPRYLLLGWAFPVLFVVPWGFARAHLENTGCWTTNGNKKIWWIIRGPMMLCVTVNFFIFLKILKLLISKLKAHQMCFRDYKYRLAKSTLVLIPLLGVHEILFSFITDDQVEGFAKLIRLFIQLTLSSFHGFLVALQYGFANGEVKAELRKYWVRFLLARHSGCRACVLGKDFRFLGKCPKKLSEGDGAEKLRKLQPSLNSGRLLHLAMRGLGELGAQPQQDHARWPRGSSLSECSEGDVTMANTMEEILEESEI
The following applies: 10 uM.
Description: Antagonist activity at GLP2R (unknown origin) at 10 uM by cAMP accumulation based assay relative to control

Series [5] has as its target T2, Gastric inhibitory polypeptide receptor (Homo sapiens) (UniProt P48546).
T2 sequence (whole entry): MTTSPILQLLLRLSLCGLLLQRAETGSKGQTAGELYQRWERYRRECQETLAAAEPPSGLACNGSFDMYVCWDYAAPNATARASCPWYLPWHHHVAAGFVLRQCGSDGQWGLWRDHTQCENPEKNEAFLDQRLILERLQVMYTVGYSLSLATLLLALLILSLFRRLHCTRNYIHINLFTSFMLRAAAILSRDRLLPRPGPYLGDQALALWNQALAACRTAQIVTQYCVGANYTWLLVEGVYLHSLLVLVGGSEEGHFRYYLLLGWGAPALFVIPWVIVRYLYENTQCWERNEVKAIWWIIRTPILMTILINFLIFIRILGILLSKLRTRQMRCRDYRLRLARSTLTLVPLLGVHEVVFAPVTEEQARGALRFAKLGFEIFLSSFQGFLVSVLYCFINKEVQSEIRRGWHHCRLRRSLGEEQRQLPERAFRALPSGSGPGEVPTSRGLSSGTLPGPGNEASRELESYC
The following applies: 10 uM.
Description: Antagonist activity at GIPR (unknown origin) at 10 uM by cAMP accumulation based assay relative to control

Molecules are shown by their SMILES.

For the compound `COc1ccc(-c2ccccc2-c2csc(N(C(=O)[C@@H](CC(=O)O)CC3CCCC3)C3CC3)n2)cn1`, in the series with Rattus norvegicus, the CL free was found to be 157 L/h/kg. The fAUC/dose in the series on Mus musculus [1] is 2.1 µM·min. Also, in the series with Mus musculus [2], the inhibition in vivo at 50 mg/kg was found to be 33%. The inhibition in series [3] is 13%; in series [4] it was < 10%; in series [5], < 10%.
